System: yeast genes (level of expressed mRNA)
Experiment: DNA chip analysis of expressed mRNA of yeast genes after 2 h culture with a toxic chemical substance
Type: cell-based, Saccharomyces cerevisiae S288C
Method: Yeast (Saccharomyces cerevtisiae S288C (α SUC2mal mel gap2 CUP1)) were cultured at 25° C. on YPD medium (yeast extract 1%, polypepton 2%, glucose 2%). One of toxic chemical substances was added to the cell at logarithmic growth phase, and the cell was further cultured for two hours. Cell was cultured without any chemical substance in the same condition, and was used as control. Concentrations of the chemical substances were defined to inhibit the growth of the yeast but not lead to death.
After the completion of cultivation, the culture was centrifuged to collect the cells. To the cells, sodium acetate buffer (50 mM sodium acetate, 10 mM EDTA, 1% SDS) was added, and the mixture was shaken at 65° C. for five minutes, followed by returning to room temperature, and obtaining the supernatant, which procedure was repeated two times. To the supernatant, ½ amount of a solution of phenol/chloroform was added, and the mixture was centrifuged to give a supernatant, which was added with an equal amount of chloroform, and the mixture was centrifuged to give a supernatant. To the supernatant, an equal amount of isopropanol containing 0.3 M sodium acetate was added, and the mixture was allowed to stand at room temperature for 30 minutes, after which the mixture was centrifuged to give a sediment of the whole RNAs. Seventy % ethanol was added to the sediment, and the mixture was again centrifuged to give a sediment, which was then dried and dissolved in water. mRNA was isolated from the whole RNAs as followings. In view of the fact that a poly A chain is attached to the 3′ terminus of mRNA, a polynucleotide having a poly T structure which was immobilized on the surface of latex beads was used to trap the mRNA, and then the mRNA was washed and eluted with spine column (Oligotex-dT30<Super>mRNA Purification Kit, Takara). Reverse transcription of the mRNA was conducted with a reverse transcriptase (Super Script II Reverse Transcriptase; catalogue No. 18064-014, GibcoBRL) using fluorescence-labeled nucleotides to give cDNAs that were introduced with Cy3-dUTP or Cy5-dUTP during the reverse transcription.
The labeled cDNAs were dissolved in TE buffer (10 mM Tris-HCl/1 mM EDTA, pH8.0), and the solution was dropped on the DNA chip containing the whole genes of yeast (DNA Chip Research Inc. Japan) so that the cDNAs were hybridized on the DNA chip at 65° C. for over 12 hours. The fluoresces intensity of the DNA chip was read with a scanner, and the ratio relative to the fluorescence intensity resulting from the absence of chemical substance was estimated as the following, which is shown in Tables 1 to 9: [formula]
In the Tables, “Intensity” indicated in the rightmost column is a value of the level of expressed mRNA of each gene in control cells as divided by the average level of the expressions of the whole genes.

## Na2As [(1)]
Yeast gene YNL074C, ratio to control without chemical substance, 2 h culture
  The level of expressed mRNA in the presence of chemical substance/: 0.9
Yeast gene YNL092W, ratio to control without chemical substance, 2 h culture
  The level of expressed mRNA in the presence of chemical substance/: 1.3
Yeast gene YNL093W
  The level of expressed mRNA in the presence of chemical substance/The level of expressed mRNA in the absence of chemical substance: 2.1
Yeast gene YNL115C, ratio to control without chemical substance, 2 h culture
  The level of expressed mRNA in the presence of chemical substance/: 0.7
Yeast gene YNL156C, ratio to control without chemical substance, 2 h culture
  The level of expressed mRNA in the presence of chemical substance/: 1.1
Yeast gene YNL234W, ratio to control without chemical substance, 2 h culture
  The level of expressed mRNA in the presence of chemical substance/: 1.1
Yeast gene YNL281W, ratio to control without chemical
  The level of expressed mRNA in the presence of chemical substance/: 1.0
Yeast gene YNL305C, ratio to control without chemical
  The level of expressed mRNA in the presence of chemical substance/: 0.9
Yeast gene YNL333W
  The level of expressed mRNA in the presence of chemical substance/The level of expressed mRNA in the absence of chemical substance: 1.0
Yeast gene YNR010W
  The level of expressed mRNA in the presence of chemical substance/The level of expressed mRNA in the absence of chemical substance: 1.3
Yeast gene YNR068C, ratio to control without chemical
  The level of expressed mRNA in the presence of chemical substance/: 1.2
Yeast gene YNR069C
  The level of expressed mRNA in the presence of chemical substance/The level of expressed mRNA in the absence of chemical substance: 1.5
Yeast gene YNR072W
  The level of expressed mRNA in the presence of chemical substance/in the absence of chemical substance: 1.1
Yeast gene YOL013C
  The level of expressed mRNA in the presence of chemical substance/The level of expressed mRNA in the absence of chemical substance: 0.9
Yeast gene YOL032W, ratio to control without chemical
  The level of expressed mRNA in the presence of chemical substance/: 1.3
Yeast gene YOL036W, ratio to control without chemical
  The level of expressed mRNA in the presence of chemical substance/: 0.8
Yeast gene YOL047C, ratio to control without chemical
  The level of expressed mRNA in the presence of chemical substance/: 1.4
Yeast gene YOL071W, ratio to control without chemical
  The level of expressed mRNA in the presence of chemical substance/: 1.3
Yeast gene YOL082W, ratio to control without chemical
  The level of expressed mRNA in the presence of chemical substance/: 1.0
Yeast gene YOL083W, ratio to control without chemical
  The level of expressed mRNA in the presence of chemical substance/: 1.1
Yeast gene YOL096C
  The level of expressed mRNA in the presence of chemical substance/in the absence of chemical substance: 1.1
Yeast gene YOL117W, ratio to control without chemical
  The level of expressed mRNA in the presence of chemical substance/: 1.0
Yeast gene YOL131W, ratio to control without chemical
  The level of expressed mRNA in the presence of chemical substance/: 1.0
Yeast gene YOL150C, ratio to control without chemical substance, 2 h culture
  The level of expressed mRNA in the presence of chemical substance/: 4.1
Yeast gene YOL162W, ratio to control without chemical
  The level of expressed mRNA in the presence of chemical substance/: 2.0
Yeast gene YOL164W
  The level of expressed mRNA in the presence of chemical substance/The level of expressed mRNA in the absence of chemical substance: 0.9
Yeast gene YOR019W, ratio to control without chemical
  The level of expressed mRNA in the presence of chemical substance/: 2.9
Yeast gene YOR036W
  The level of expressed mRNA in the presence of chemical substance/The level of expressed mRNA in the absence of chemical substance: 1.8
Yeast gene YOR117W
  The level of expressed mRNA in the presence of chemical substance/The level of expressed mRNA in the absence of chemical substance: 0.8
Yeast gene YOR124C
  The level of expressed mRNA in the presence of chemical substance/The level of expressed mRNA in the absence of chemical substance: 0.6
Yeast gene YOR132W
  The level of expressed mRNA in the presence of chemical substance/The level of expressed mRNA in the absence of chemical substance: 0.9
Yeast gene YOR157C
  The level of expressed mRNA in the presence of chemical substance/The level of expressed mRNA in the absence of chemical substance: 1.0
Yeast gene YOR180C
  The level of expressed mRNA in the presence of chemical substance/in the absence of chemical substance: 0.8
Yeast gene YOR181W
  The level of expressed mRNA in the presence of chemical substance/The level of expressed mRNA in the absence of chemical substance: 1.0
Yeast gene YOR185C
  The level of expressed mRNA in the presence of chemical substance/The level of expressed mRNA in the absence of chemical substance: 1.1
Yeast gene YOR197W, ratio to control without chemical
  The level of expressed mRNA in the presence of chemical substance/: 0.8
Yeast gene YOR198C
  The level of expressed mRNA in the presence of chemical substance/The level of expressed mRNA in the absence of chemical substance: 1.0
Yeast gene YOR259C
  The level of expressed mRNA in the presence of chemical substance/The level of expressed mRNA in the absence of chemical substance: 0.8
Yeast gene YOR261C
  The level of expressed mRNA in the presence of chemical substance/The level of expressed mRNA in the absence of chemical substance: 1.0
Yeast gene YOR288C
  The level of expressed mRNA in the presence of chemical substance/The level of expressed mRNA in the absence of chemical substance: 0.9
Yeast gene YOR355W
  The level of expressed mRNA in the presence of chemical substance/The level of expressed mRNA in the absence of chemical substance: 0.7
Yeast gene YOR363C
  The level of expressed mRNA in the presence of chemical substance/in the absence of chemical substance: 0.8
Yeast gene YOR383C
  The level of expressed mRNA in the presence of chemical substance/The level of expressed mRNA in the absence of chemical substance: 0.9
Yeast gene YPL087W, ratio to control without chemical
  The level of expressed mRNA in the presence of chemical substance/: 1.0
Yeast gene YPL089C
  The level of expressed mRNA in the presence of chemical substance/The level of expressed mRNA in the absence of chemical substance: 1.2
Yeast gene YPL109C
  The level of expressed mRNA in the presence of chemical substance/The level of expressed mRNA in the absence of chemical substance: 1.1
Yeast gene YPL149W
  The level of expressed mRNA in the presence of chemical substance/The level of expressed mRNA in the absence of chemical substance: 1.5
Yeast gene YPL154C
  The level of expressed mRNA in the presence of chemical substance/The level of expressed mRNA in the absence of chemical substance: 0.7
Yeast gene YPL196W, ratio to control without chemical
  The level of expressed mRNA in the presence of chemical substance/: 1.3
Yeast gene YPL206C, ratio to control without chemical
  The level of expressed mRNA in the presence of chemical substance/: 1.0
Yeast gene YPL222W, ratio to control without chemical
  The level of expressed mRNA in the presence of chemical substance/: 0.9
Yeast gene YPR023C, ratio to control without chemical
  The level of expressed mRNA in the presence of chemical substance/: 1.2
Yeast gene YPR103W
  The level of expressed mRNA in the presence of chemical substance/The level of expressed mRNA in the absence of chemical substance: 0.7
Yeast gene YPR108W
  The level of expressed mRNA in the presence of chemical substance/The level of expressed mRNA in the absence of chemical substance: 0.8
Yeast gene YPR151C, ratio to control without chemical
  The level of expressed mRNA in the presence of chemical substance/: 2.3
Yeast gene YPR184W
  The level of expressed mRNA in the presence of chemical substance/in the absence of chemical substance: 1.2
